Test results taken from PubChem BioAssay (NCI).
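Test compounds were applied to cells in 96-well plates for 48 hours at 5 doses. TGI marks complete inhibition of growth.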

Legend:
Test in all cases: inhibition of tumour cell growth, NCI panel, 48 h
MALME-3M melanoma = test system: MALME-3M melanoma
K-562 leukemia = test system: K-562 leukemia
SNB-75 CNS = test system: SNB-75 CNS
CCRF-CEM leukemia = test system: CCRF-CEM leukemia
RPMI-8226 leukemia = test system: RPMI-8226 leukemia
MOLT-4 leukemia = test system: MOLT-4 leukemia
U251 CNS = test system: U251 CNS
786-0 renal = test system: 786-0 renal
UACC-257 melanoma = test system: UACC-257 melanoma
SK-OV-3 ovarian = test system: SK-OV-3 ovarian
KM12 colon = test system: KM12 colon
M14 melanoma = test system: M14 melanoma
OVCAR-8 ovarian = test system: OVCAR-8 ovarian
SF-268 CNS = test system: SF-268 CNS
CAKI-1 renal = test system: CAKI-1 renal
SK-MEL-5 melanoma = test system: SK-MEL-5 melanoma
DLD-1 colon = test system: DLD-1 colon
A498 renal = test system: A498 renal
OVCAR-5 ovarian = test system: OVCAR-5 ovarian
NCI-H460 lung = test system: NCI-H460 lung
SNB-19 CNS = test system: SNB-19 CNS
HCT-116 colon = test system: HCT-116 colon
HCC-2998 colon = test system: HCC-2998 colon
LXFL 529 NSCLC = test system: LXFL 529 NSCLC
KM20L2 colon = test system: KM20L2 colon
SF-295 CNS = test system: SF-295 CNS
EKVX NSCLC = test system: EKVX NSCLC
HOP-62 NSCLC = test system: HOP-62 NSCLC
NCI-H522 lung = test system: NCI-H522 lung
XF 498 CNS = test system: XF 498 CNS
SNB-78 CNS = test system: SNB-78 CNS
TK-10 renal = test system: TK-10 renal
UO-31 renal = test system: UO-31 renal
UACC-62 melanoma = test system: UACC-62 melanoma
SW-620 colon = test system: SW-620 colon
ACHN renal = test system: ACHN renal
SN12C renal = test system: SN12C renal
OVCAR-4 ovarian = test system: OVCAR-4 ovarian
SF-539 CNS = test system: SF-539 CNS
NCI-H23 lung = test system: NCI-H23 lung
A549 NSCLC = test system: A549 NSCLC
M19-MEL melanoma = test system: M19-MEL melanoma
IGROV1 ovarian = test system: IGROV1 ovarian
DMS 114 small cell lung = test system: DMS 114 small cell lung
OVCAR-3 ovarian = test system: OVCAR-3 ovarian
HT29 colon = test system: HT29 colon
SK-MEL-2 melanoma = test system: SK-MEL-2 melanoma
COLO 205 colon = test system: COLO 205 colon
SK-MEL-28 melanoma = test system: SK-MEL-28 melanoma
RXF 393 renal = test system: RXF 393 renal
HCT-15 colon = test system: HCT-15 colon
LOX IMVI melanoma = test system: LOX IMVI melanoma
HOP-92 NSCLC = test system: HOP-92 NSCLC
NCI-H226 lung = test system: NCI-H226 lung
DMS 273 small cell lung = test system: DMS 273 small cell lung
RXF-631 renal = test system: RXF-631 renal
SR leukemia = test system: SR leukemia

COc1ccc(CCn2c(=O)c3ccccc3n(C)c2=O)cc1
TGI (MALME-3M melanoma): > 100 µM
TGI (K-562 leukemia): > 100 µM
TGI (SNB-75 CNS): > 100 µM
TGI (CCRF-CEM leukemia): > 100 µM
TGI (RPMI-8226 leukemia): > 100 µM
TGI (MOLT-4 leukemia): > 100 µM
TGI (U251 CNS): > 100 µM
TGI (786-0 renal): > 100 µM
TGI (UACC-257 melanoma): > 100 µM
TGI (SK-OV-3 ovarian): > 100 µM
TGI (KM12 colon): > 100 µM
TGI (M14 melanoma): > 100 µM
TGI (OVCAR-8 ovarian): > 100 µM
TGI (SF-268 CNS): > 100 µM
TGI (CAKI-1 renal): > 100 µM
TGI (SK-MEL-5 melanoma): > 100 µM
TGI (DLD-1 colon): > 100 µM
TGI (A498 renal): > 100 µM
TGI (OVCAR-5 ovarian): > 100 µM
TGI (NCI-H460 lung): > 100 µM
TGI (SNB-19 CNS): > 100 µM
TGI (HCT-116 colon): > 100 µM
TGI (HCC-2998 colon): > 100 µM
TGI (LXFL 529 NSCLC): > 100 µM
TGI (KM20L2 colon): > 100 µM
TGI (SF-295 CNS): > 100 µM
TGI (EKVX NSCLC): > 100 µM
TGI (HOP-62 NSCLC): > 100 µM
TGI (NCI-H522 lung): 95.2 µM
TGI (XF 498 CNS): > 100 µM
TGI (SNB-78 CNS): > 100 µM
TGI (TK-10 renal): > 100 µM
TGI (UO-31 renal): > 100 µM
TGI (UACC-62 melanoma): > 100 µM
TGI (SW-620 colon): > 100 µM
TGI (ACHN renal): > 100 µM
TGI (SN12C renal): > 100 µM
TGI (OVCAR-4 ovarian): > 100 µM
TGI (SF-539 CNS): > 100 µM
TGI (NCI-H23 lung): > 100 µM
TGI (A549 NSCLC): > 100 µM
TGI (M19-MEL melanoma): > 100 µM
TGI (IGROV1 ovarian): > 100 µM
TGI (DMS 114 small cell lung): > 100 µM
TGI (OVCAR-3 ovarian): > 100 µM
TGI (HT29 colon): > 100 µM
TGI (SK-MEL-2 melanoma): 85.6 µM
TGI (COLO 205 colon): 50.1 µM
TGI (SK-MEL-28 melanoma): > 100 µM

CC(C)(C)C(=CS(=O)/N=C/c1ccccc1)C(C)(C)C (stereo not drawn)
TGI (MALME-3M melanoma): 75.9 µM
TGI (K-562 leukemia): 86.4 µM
TGI (RXF 393 renal): 74.5 µM
TGI (SNB-75 CNS): 63.2 µM
TGI (CCRF-CEM leukemia): 49.8 µM
TGI (HCT-15 colon): 80.7 µM
TGI (RPMI-8226 leukemia): 46.3 µM
TGI (LOX IMVI melanoma): 35.4 µM
TGI (MOLT-4 leukemia): 54.3 µM
TGI (U251 CNS): 84.7 µM
TGI (786-0 renal): > 100 µM
TGI (UACC-257 melanoma): > 100 µM
TGI (HOP-92 NSCLC): 51.2 µM
TGI (SK-OV-3 ovarian): 69.8 µM
TGI (KM12 colon): > 100 µM
TGI (NCI-H226 lung): > 100 µM
TGI (M14 melanoma): > 100 µM
TGI (OVCAR-8 ovarian): > 100 µM
TGI (SF-268 CNS): > 100 µM
TGI (CAKI-1 renal): > 100 µM
TGI (SK-MEL-5 melanoma): 73 µM
TGI (DLD-1 colon): > 100 µM
TGI (A498 renal): > 100 µM
TGI (DMS 273 small cell lung): 92 µM
TGI (OVCAR-5 ovarian): > 100 µM
TGI (NCI-H460 lung): 73.2 µM
TGI (SNB-19 CNS): > 100 µM
TGI (HCT-116 colon): > 100 µM
TGI (LXFL 529 NSCLC): 76.5 µM
TGI (KM20L2 colon): > 100 µM
TGI (EKVX NSCLC): > 100 µM
TGI (HOP-62 NSCLC): > 100 µM
TGI (NCI-H522 lung): 63.2 µM
TGI (XF 498 CNS): 89.7 µM
TGI (RXF-631 renal): > 100 µM
TGI (SNB-78 CNS): > 100 µM
TGI (TK-10 renal): > 100 µM
TGI (UO-31 renal): 95.7 µM
TGI (SW-620 colon): > 100 µM
TGI (ACHN renal): > 100 µM
TGI (SR leukemia): 58.9 µM
TGI (SN12C renal): 51.7 µM
TGI (OVCAR-4 ovarian): 70.9 µM
TGI (SF-539 CNS): > 100 µM
TGI (NCI-H23 lung): > 100 µM
TGI (A549 NSCLC): > 100 µM
TGI (M19-MEL melanoma): > 100 µM
TGI (IGROV1 ovarian): 71.2 µM
TGI (DMS 114 small cell lung): 82.1 µM
TGI (OVCAR-3 ovarian): > 100 µM
TGI (HT29 colon): > 100 µM
TGI (SK-MEL-2 melanoma): 34.4 µM
TGI (COLO 205 colon): > 100 µM
TGI (SK-MEL-28 melanoma): > 100 µM
